The values below come from PMC10745061 (Marine Drugs, 2023).

Data set [1] concerns E. coli K12 SBS 1936 biofilm. Nature of the data set: Effect on established biofilm, MTT assay. Conditions: at 2 × MIC (4 μM), 24 h pre-formed biofilm, 16 h treatment in LB, 37 °C. It is filed as cell-based, Escherichia coli. The method, then: Bacterial biofilms play an important role in UTIs, being responsible for their persistence. Therefore, the eradication of mature biofilms is an extremely challenging task because high concentrations or doses of antibacterial agents are required. Here, the ability of HfBRI-25 to disrupt established biofilms was evaluated as a number of viable bacteria in biofilm using the MTT assay. According to our previous data, E. coli K12 SBS 1936 was chosen as a strong biofilm-producer that can form it in different media.
E. coli K12 SBS1936 was grown in LB broth overnight at 37 °C and diluted in the same media to obtain 1 × 10^6 CFU/mL. A total of 100 μL of bacterial suspension was added to each well of the 96-well polystyrene plate and grown at 32 °C and 120 rpm for 24 h. The wells were washed twice with sterile water to remove non-adherent cells. In parallel, 100 μL of peptide or ciprofloxacin solutions, serially diluted in LB medium using a separate 96-well polystyrene plate, were added to each well with pre-formed biofilm and incubated at 37 °C and 180 rpm for 16 h. Biofilm viability was assessed by using the MTT reagent (Sigma). […] Absorbance of each well was measured at 570 nm. Bacterial survival was calculated as a percentage relative to samples without antimicrobial agent. […]
On the technique in general: Formazan colour is commonly taken as a measure of viable cells.

The nature of another data set: RP-HPLC retention time. It is filed as physicochemical. Conditions: semi-preparative RP-HPLC, C18 column, linear gradient 5 to 80% (v/v) acetonitrile in water with 0.1% TFA within 50 min. As to the method: Figure 2 Structure analysis of the novel BRICHOS-related peptides HfBRI-25 and HfBRI-28. (A) Characteristics of the obtained peptides. ^1 Mean Kyte–Doolittle hydrophobicity index (GRAVY) was calculated using the Expasy ProtParam tool. The maximum and minimum values of this index are +4.5 and −4.5 for poly-Ile and poly-Arg sequences, respectively. ^2 Percentage of hydrophobic amino acids was calculated using the APD3 database. ^3 Retention times were measured using semi-preparative reversed-phase high-performance liquid chromatography (RP-HPLC) on a C18 column with a linear gradient from 5 to 80% (v/v) acetonitrile in water containing 0.1% trifluoroacetic acid (TFA) within 50 min. ^4 Molecular masses were calculated by considering the presence of four Cys residues forming two disulfide bonds in the case of HfBRI-25. ^5 Molecular masses were determined experimentally using MALDI-TOF mass spectrometry. (B) Spatial structures of HfBRI-25 and HfBRI-28 were modeled using the AlphaFold algorithm (ColabFold server). The top-rated models, according to predicted local distance difference test (pLDDT) scores, were visualized by the PyMOL software. (C) The CD-spectra of the peptides in water or in the presence of 30 mM DPC micelles. (D) The CONTINLL program was used for CD data analysis. […]

The test system of a further data set is Escherichia coli ML-35p. As to conditions: salt-containing MHB, FBS at different concentrations up to 15%. From the text:
The results were expressed as the median values determined on the basis of at least three independent experiments performed in triplicate.

Data set [2] concerns human red blood cells (hRBCs). Nature of the data set: Hemolysis, hemoglobin release assay. It is filed as cell-based. As to conditions: hemoglobin release assay, 2 h incubation, two independent donors. As to the method:
Figure 3 Biological activity of the peptides towards human cells. (A) Hemolytic effect on human red blood cells (hRBCs) after 2 h incubation (the hemoglobin release assay). (B) Cytotoxicity towards transformed human embryonic kidney cells (HEK293T) after 16 h incubation (the resazurin assay).
The hemolytic activity of the peptides was tested against the fresh suspension of human red blood cells (hRBC) using the hemoglobin release assay, as described previously. Two experiments were performed with hRBC from blood samples of independent donors. The quantitative data are represented as average means with standard deviations. The cytotoxic effect of the peptides was tested on transformed human embryonic kidney cells (HEK293T) using the resazurin assay. The technique is based on the ability of live cell dehydrogenases to reduce a blue resazurin to pink and fluorescent resorufin. A total of 10^4 cells per well in Dulbecco’s modified Eagle’s medium (DMEM/F12) supplemented with 10% FBS were placed into 96-well plates for 24 h in the CO2-incubator (5% CO2, 37 °C). […] Fluorescence of the formed resorufin was measured with the microplate reader AF2200 (Eppendorf, Germany) using the following channel: λExc = 535 nm, λEm = 595 nm. The fluorescence signal in the wells containing cells cultured without the peptides was assumed to represent 100% cell viability. […]

Where a SMILES comes first, the peptide text is derived from it. Bridges are numbered along the chain shown (N, C = ends).

For `CC[C@H](C)[C@@H]1NC(=O)[C@H](Cc2c[nH]c3ccccc23)NC(=O)[C@H](C(C)C)NC(=O)[C@@H]2CSSC[C@H](NC(=O)[C@H](CCCNC(=N)N)NC(=O)[C@H](CCCNC(=N)N)NC(=O)[C@H](C(C)C)NC(=O)[C@H](CCCNC(=N)N)NC(=O)[C@H](CCCNC(=N)N)NC(=O)CNC(=O)[C@H](CC(N)=O)NC(=O)[C@H](C(C)C)NC(=O)[C@H](CO)NC1=O)C(=O)N[C@@H](Cc1c[nH]c3ccccc13)C(=O)NCC(=O)N[C@@H](CO)C(=O)NCC(=O)N[C@H](C(=O)O)CSSC[C@H](NC(=O)CNC(=O)[C@H](CCCNC(=N)N)NC(=O)[C@@H]1CCCN1C(=O)[C@@H](N)CO)C(=O)N[C@@H](Cc1ccccc1)C(=O)N2` [HfBRI-25] (H-SPRGCFCVWISVNGRRVRRCWGSGC-OH; disulfide 5-25, 7-20; N-terminus and C-terminus assumed), in data set [1], the “Bacterial viability inside established biofilm” value is on record as “minimal residual bacterial viability”. In “RP-HPLC retention time”, the “RP-HPLC Retention Time” value stood at 27.5 min. Besides, the “MIC in the presence of FBS at different concentrations” value in the data set with Escherichia coli ML-35p worked out at 1 µM. Besides, the “Hemolytic effect on human red blood cells” value in data set [2] was “absence of hemolytic and cytotoxic properties”.
